Measured values from paper PMC10467082, “Anti-Toxoplasma gondii Effects of Lipopeptide Derivatives of Lycosin-I” (Toxins, 2023).

Tests used:
RH strain of T. gondii = format: in vivo, mouse; conditions: mouse, in vivo, ip, 4 mg/kg/day
Method: To evaluate the anti-T. gondii effect of lipopeptides in vivo, we established a mouse model acutely infected with the RH strain of T. gondii. Forty 8-week-old female BALB/c mice weighing 17–19 g were randomly divided into 5 groups (n = 8 per group) and intraperitoneally injected with 1 × 10^3 tachyzoites per mouse. Lycosin-I, L-C12, L-an and sulfadiazine (SDZ) were dissolved in PBS, respectively. As these peptides are small linear peptides that are easily degraded by pepsin; mice were treated with these peptides via intraperitoneal injection (the same way that the mice were infected with T. gondii) rather than oral gavage. After 4 h of infection, mice were traperitoneally injected with 4 mg/kg of Lycosin-I, L-C12, L-an and sulfadiazine solution (once a day) for 7 days. Mice in the negative control group were treated with PBS. Mice in this condition observed daily and the time of death was recorded. The experiment was approved by the Ethics Committee of the School of Basic Medicine of Central South University (approval number: 2021-KT24).

T. gondii tachyzoites [1] = format: cell-based, Toxoplasma gondii
Method: The HFF cells were seeded in 6-well plates (1 × 10^6 cells per well) and incubated for 48–72 h. Cells in the 6-well plates were infected with 500 fresh tachyzoites per well for 2 h. The well in which cells were not infected with tachyzoites was considered the blank control group. Cells infected with tachyzoites were then treated with Lycosin-I (10 μM), L-C12 (10 μM), L-an (10 μM), SDZ (10 μM, positive control) and DMEM (negative control), respectively. After 7 days, HFFs in the plates were washed twice with PBS, fixed with methanol for 5 min, and then stained with crystal violet for 20 min. Six-well plates were washed with running water, dried, photographed, and then the number and area of plaques were counted using Photoshop version 2020. Three independent experiments were carried out.

IL-4 = format: in vivo, mouse; conditions: mouse, in vivo
Method: (§1) Once T. gondii has infected a host, a number of inflammatory responses can be induced in the host to resist T. gondii invasion and proliferation. Therefore, we wanted to investigate the expression levels of anti-inflammatory and pro-inflammatory factors in the mice treated with lipopeptides. The expression levels of IFN-γ, TNF-α, IL-4 and IL-10 in the spleen tissues of mice after 5 days of treatment were determined via qRT-PCR (Figure 5). […] Compared to the PBS group, all treatment groups promoted the upregulation of the pro-inflammatory cytokines IFN-γ and TNF-α and the anti-inflammatory cytokine IL-4.
(§2) Total RNA was extracted from each sample using Total RNA Isolation Kit (ENOVA BIO Co., Ltd., Wuhan, China), in accordance with the manufacturer’s instructions. Reverse transcription of RNA into cDNA was performed using the PerfectStart Uni RT&qPCR Kit (TransGen Biotech Co., Ltd., Beijing, China) in accordance with the instructions. cDNA was used as a template for qRT-PCR using PerfectStart Uni RT&qPCR Kit (TransGen Biotech Co., Ltd., Beijing, China). Primers, listed in Table 2, were designed and synthesized by a biotechnology company (Sangon Biotech Co., Ltd., Shanghai, China). Analysis was performed using the comparative threshold cycle method (2^−∆∆Ct). The gene expression levels of genes were normalized to those of housekeeping genes (β-actin or GAPDH).

TNF-α = format: in vivo, mouse; conditions: mouse, in vivo
Method: as §1, §2

IL-10 = format: in vivo, mouse; conditions: mouse, in vivo
Method: as §1, §2

IFN-γ = format: in vivo, mouse; conditions: mouse, in vivo
Method: as §1, §2

Toxoplasma [2] = conditions: cited from earlier work
Description: To evaluate the efficacy of the lipopeptides in vivo, we established a mouse model of acute T. gondii infection.

T. gondii tachyzoites [3] = conditions: mouse, in vivo
Method: Therefore, the mice were treated with 4 mg/kg/day of SDZ or lipopetides for 7 days, and the survival time of the mice was closely monitored for 15 days. […] We also determined the parasite load in the peritoneal fluid and tissues of mice acutely infected with T. gondii after 5 days of treatment. The number of tachyzoites in the peritoneal fluid of the mice was directly counted using a blood cell counting plate (Figure 4B), while the expression of the surface antigen SAG1, a membrane surface protein specific to tachyzoites, was detected via qRT-PCR in the heart, liver, spleen, lung and brain of the mice (Figure 4C–G).
as §2

Toxoplasma [4] = conditions: mouse; cited from earlier work
Description: We established a mouse model acutely infected with tachyzoites, recorded the survival time of the mice and determined the parasite load in the tissues of the mice. Lycosin-I and L-an can effectively prolong the survival time of mice.

With `Nc1ccc(S(=O)(=O)Nc2ncccn2)cc1` [SDZ, Sulfadiazine] the “survival time of mice compared to control group” value (RH strain of T. gondii) was “could not prolong the survival time”, the “number and area of plaques in contrast with DMEM group” value (T. gondii tachyzoites [1]) was “significantly reduced” and the “plaques compared to DMEM group” value (T. gondii tachyzoites [1]) was “no obvious plaque”. The “expression of IL-4 in spleen compared to PBS group” value (IL-4) was “promoted IL-4 expression”, the “expression of TNF-α in spleen compared to PBS group” value (TNF-α) was “promoted the expression” and the “expression of IL-10 in spleen compared to PBS group” value (IL-10) was “inhibited the upregulation of IL-10”. For the same molecule, the “expression of IFN-γ in spleen compared to PBS group” value (IFN-γ) was “promoted the expression”, the “anti-Toxoplasma effect in vitro” value (Toxoplasma [2]) was “anti-Toxoplasma effect was also observed” and the “parasite load in peritoneal fluid and tissues compared to PBS group” value (T. gondii tachyzoites [3]) was “effectively inhibit the proliferation of tachyzoites in mice”. For the same molecule, the “anti-Toxoplasma effect in vivo” value (Toxoplasma [4]) was “anti-Toxoplasma effect was also observed”.
